Source: the PolyMetriX glass transition set
± gives the standard deviation of the reports.

Row | glass transition temperature [°C] | Structure (SMILES)
1 | 39.00 | *CC(C[Si](*)(C)C)c1cccc2ccccc12 (repeat unit)
2 | 232.00 | *Oc1ccc(NC(=O)Nc2ccccc2CCc2ccccc2NC(=O)Nc2ccc(*)cc2)cc1 (repeat unit)
3 | 68.00 | */C=C/c1cc(CCCCCCCCCC)c(/C=C/c2ccc(-c3ccc(*)nc3)cn2)cc1CCCCCCCCCC (repeat unit)
4 | 265.00 | *c1ccc(Cc2ccc(N3C(=O)c4ccc(Sc5ccc6c(c5)C(=O)N(*)C6=O)cc4C3=O)cc2)cc1 (repeat unit)
5 | 30.00 | *CC(*)C(=O)Oc1ccccc1C(=O)OCC (repeat unit)
6 | 197.00 | *Oc1ccc(S(=O)(=O)c2ccc(Oc3ccc(C4(c5ccc(*)c(C)c5)CCCCC4)cc3C)cc2)cc1 (repeat unit)
7 | 312.00 | *c1ccc2c(c1)C(=O)N(c1cccc(Oc3cccc(N4C(=O)c5ccc(C(F)(F)C(F)(F)C(*)(F)F)cc5C4=O)c3)c1)C2=O (repeat unit)
8 | 87.10 | *CC(*)(C)C(=O)OCCCCCCCCCCOc1ccc(C#Cc2cc(OC)c(/C=C/c3ccncc3)cc2OC)cc1 (repeat unit)
9 | 75.00 | *CC(*)(C)C(=O)OCCCCCCCCOc1ccc(C(=O)Oc2ccc(C(=O)/C=C/c3c(C)c4ccccc4n3C)cc2)cc1 (repeat unit)
10 | 61.00 | *CCOC(=O)NCCCCCCNC(=O)OCCOc1ccc(C2(c3ccc(O*)cc3)c3ccccc3-c3ccccc32)cc1 (repeat unit)
11 | 126.00 | *OCCOC(=O)c1cc(/N=N/c2ccc(OCC)cc2)ccc1-c1ccc(/N=N/c2ccc(OCC)cc2)cc1C(=O)OCCOc1nc(-c2ccc(OCCCC)cc2)nc(*)c1-c1ccc(OC)cc1 (repeat unit)
12 | 105.00 | *Oc1ccccc1C(=O)OC(=O)c1ccccc1OC(=O)c1cccc(C(*)=O)c1 (repeat unit)
13 | 57.80 | *CC(*)(C)C(=O)OCCC1CC[N+](C)(CCCCCCOc2ccc(/N=N/c3ccc([N+](=O)[O-])cc3)cc2)CC1 (repeat unit)
14 | 145.00 | *Oc1ccc(NC(=O)c2cccc(C(=O)Nc3ccc(Oc4ccc(C(=O)c5ccc(*)cc5)cc4)cc3)c2)cc1 (repeat unit)
15 | 287.00 | *Nc1ccc(C(C)(C)c2ccc(NC(=O)c3cc(C(*)=O)cc(S(=O)(=O)c4ccccc4)c3)cc2)cc1 (repeat unit)
16 | 161.00 | *Oc1ccc(/C(C)=N/c2ccc(/N=C(\C)c3ccc(Oc4ccc(C(C)(C)c5ccc(*)cc5)cc4)cc3)cc2)cc1 (repeat unit)
17 | 145.00 | *Oc1ccc2cc(OC(=O)c3ccc(Oc4ccc(C(*)=O)cc4)cc3)ccc2c1 (repeat unit)
18 | 19.00 | *CC(*)(C)C(=O)Oc1ccc(/N=N/c2ccc(OCCCCCCCCCCCOC(=O)c3ccc4c(c3)OCCOCCOCCOCCO4)cc2)cc1 (repeat unit)

Row | glass transition temperature [°C] | Structure (SMILES)
19 | 115.00 | *CC(*)(C)C(=O)OCCOc1ccc(-c2ccc(-c3ccc(C#N)cc3)cc2)cc1 (repeat unit)
20 | 239.00 | *c1ccc(/C=C(\C#N)C(=O)NC2CCCCC2NC(=O)/C(C#N)=C/c2ccc(N(c3ccccc3)c3ccc(N(*)c4ccccc4)cc3)cc2)cc1 (repeat unit)
21 | 125.00 | *CCN(CCOC(=O)Nc1ccc(C)c(NC(=O)O*)c1)c1ccc(C(C#N)=C(C#N)C#N)cc1 (repeat unit)
22 | 132.50 | *CC(O)COc1ccc(S(=O)(=O)c2ccc(O*)c(C)c2)cc1C (repeat unit)
23 | 163.00 | *Oc1cc(Oc2ccc(C(C)(C)c3ccc(*)cc3)cc2)cc(C(=O)Oc2ccc(/N=N/c3ccc(C#N)cc3)cc2)c1 (repeat unit)
24 | 237.00 | *CC(C)(C)C1C(=O)N(c2c(C)cccc2C)C(=O)C1* (repeat unit)
25 | 56.00 | *CCCCOC(=O)NNC(=O)CCCCCCCCC(=O)NNC(=O)O* (repeat unit)
26 | 198.00 | *Oc1ccc(/N=N/c2ccc(Cc3ccc(/N=N/c4ccc(OC(=O)c5ccc(C(*)=O)cc5)cc4)cc3[N+](=O)[O-])c([N+](=O)[O-])c2)cc1 (repeat unit)
27 | 24.00 | *CCCCCCCCCCCCOc1ccc(OCc2ccc(COc3ccc(O*)cc3)cc2)cc1 (repeat unit)
28 | 111.00 | *Oc1ccc(/C(=C/c2ccc(-c3ccc(/C=C(\c4ccccc4)c4ccc(OC(=O)CCCCCCCCC(*)=O)cc4)cc3)cc2)c2ccccc2)cc1 (repeat unit)
29 | 134.00 | *Oc1cccc(OC(=O)c2ccc([Si](C)(C)c3ccc(C(*)=O)cc3)cc2)c1 (repeat unit)
30 | 111.00 | *O[Si](*)(C)CCc1cc(C(=O)Oc2ccc(OC)cc2)ccc1C(=O)Oc1ccc(OC)cc1 (repeat unit)
31 | 30.00 | *CC(C)(C)CS(=O)(=O)CC(C)(C)COC(=O)NCCCCCCNC(=O)O* (repeat unit)
32 | 112.00 | */C=C/c1sc(-c2ccc(-c3ccc(-c4sc(/C=C/C5=CC(=C(C#N)C#N)C=C(*)O5)c(CCCCCC)c4CCCCCC)s3)s2)c(CCCCCC)c1CCCCCC (repeat unit)
33 | 130.00 | *CCN(*)C(=O)c1ccc2ccccc2c1 (repeat unit)
34 | 61.00 | *CCCCCCCOC(=O)Nc1ccc(C)c(NC(=O)O*)c1 (repeat unit)
35 | 109.00 | *CCCNC(=O)Cc1ccc(C(=O)N*)cc1 (repeat unit)
36 | 243.00 | *c1ccc(Oc2ccc(C(=O)c3ccc(Oc4ccc(N5C(=O)c6ccc(Oc7ccc8c(c7)C(=O)N(*)C8=O)cc6C5=O)cc4)cc3)cc2)cc1 (repeat unit)

Second part, the molecule before the results:

Row | Structure (SMILES) | glass transition temperature [°C]
37 | *CCCCCOC(=O)c1ccccc1C(=O)[O][Cd][O]C(=O)c1ccccc1C(=O)OCCCCCOC(=O)Nc1ccc(C)c(NC(=O)O*)c1 (repeat unit) | 2.30
38 | *c1ccc(-c2ccc([Si](C)(C)[Si](*)(C)C)s2)s1 (repeat unit) | 45.00
39 | *CCCCCCCCCCC(=O)N(*)C (repeat unit) | -12.00
40 | *C(=O)c1cc(C(=O)c2ccc3c(c2)C(=O)N(c2ccc(Oc4ccc(N5C(=O)c6ccc(*)cc6C5=O)cc4)cc2)C3=O)cc(-c2ccccc2)c1 (repeat unit) | 258.50
41 | *CC(O)COc1c(Cl)cc(C(C)(C)c2cc(Cl)c(O*)c(Cl)c2)cc1Cl (repeat unit) | 135.00
42 | *c1ccc(-c2ccc(-c3cc(-c4ccc(-c5ccc(Oc6ccccc6)cc5)cc4)c4cc(-c5ccc6nc(*)cc(-c7ccc(-c8ccc(Oc9ccccc9)cc8)cc7)c6c5)ccc4n3)cc2)cc1 (repeat unit) | 374.00
43 | *CCOCCOCCOCCOCCOC(=O)CCSCCC(=O)O* (repeat unit) | -39.00
44 | *CC(C)(C)COC(=O)CCC(=O)O* (repeat unit) | -18.00
45 | *c1ccc(-c2nc3cc(Oc4ccc(NC(=O)CN5C(=O)c6ccc(C(c7ccc8c(c7)C(=O)N(CC(=O)Nc7ccc(Oc9ccc%10nc(-c%11ccccc%11)c(-c%11ccc(N%12C(=O)c%13ccc%14c%15c(ccc(c%13%15)C%12=O)C(=O)N(*)C%14=O)cc%11)nc%10c9)cc7)C8=O)(C(F)(F)F)C(F)(F)F)cc6C5=O)cc4)ccc3nc2-c2ccccc2)cc1 (repeat unit) | 306.00
46 | *Oc1ccc(C(c2ccc(Oc3ccc(C(=O)c4c(C(=O)c5ccc(*)cc5)c(-c5ccc(F)cc5)c(-c5ccc(F)cc5)c(-c5ccc(F)cc5)c4-c4ccc(F)cc4)cc3)cc2)(C(F)(F)F)C(F)(F)F)cc1 (repeat unit) | 253.00
47 | *c1ccc(Oc2cccc(Oc3ccc(N4C(=O)c5ccc(Oc6ccc(C(C)(C)c7ccc(Oc8ccc9c(c8)C(=O)N(*)C9=O)cc7)cc6)cc5C4=O)cc3)c2)cc1 (repeat unit) | 246.00
48 | *CC(*)(C#N)C(=O)OCCCC (repeat unit) | 117.00
49 | *CC(*)C1=NCCN1 (repeat unit) | -48.3
50 | *C(=O)c1ccc2c(c1)C(=O)N(c1cc(N3C(=O)c4ccc(*)cc4C3=O)c(C)cc1C)C2=O (repeat unit) | 305.00
51 | *C/C=C(\C)CS(*)(=O)=O (repeat unit) | 88.20
52 | *C1C(*)C2CC1C1C=CCC12 (repeat unit) | 145.00
53 | *Oc1ccc(Oc2ccc(/C(=N\c3ccccc3)c3ccc(Oc4ccc(Oc5cccc(*)n5)cc4)cc3)cc2)cc1 (repeat unit) | 135.00
54 | *CC(*)C(=O)c1ccccc1 (repeat unit) [Poly(phenyl vinyl ketone)] | 60.80 ± 17
55 | *c1ccc2c(c1)C(=O)N(c1cccc(Oc3ccc(S(=O)(=O)c4ccc(Oc5cccc(N6C(=O)c7ccc(C(*)(C(F)(F)F)C(F)(F)F)cc7C6=O)c5)cc4)cc3)c1)C2=O (repeat unit) | 209.50
56 | *c1ccc(Oc2ccc(C(=O)c3ccc(C(=O)c4ccc(Oc5ccc(-c6nc7ccccc7n6-c6ccc(-n7c(*)nc8ccccc87)cc6)cc5)cc4)cc3)cc2)cc1 (repeat unit) | 238.00
57 | *CCOC(=O)c1cccc(C(=O)O*)c1 (repeat unit) | 58.00
58 | *C(=O)c1ccc2c(c1)C(=O)N(c1c(C)cc(C(c3cccc(C(F)(F)F)c3)c3cc(C)c(N4C(=O)c5ccc(*)cc5C4=O)c(C)c3)cc1C)C2=O (repeat unit) | 285.00
59 | *CC(*)(C)C(=O)OCC(C)(C)C (repeat unit) [Poly(neopentyl methacrylate) ] | 33 ± 3.7
60 | */C=C/CCCC(Cl)CCC* (repeat unit) | -63.00
61 | *c1ccc(C(=O)Nc2cccc(Oc3ccc(S(=O)(=O)c4ccc(Oc5cccc(NC(=O)c6ccc(N7C(=O)c8ccc(-c9ccc%10c(c9)C(=O)N(*)C%10=O)cc8C7=O)cc6)c5)cc4)cc3)c2)cc1 (repeat unit) | 262.00
62 | *c1c(C)cc(Cc2cc(C)c(N3C(=O)c4ccc(Oc5c(C)cc(-c6cc(C)c(Oc7ccc8c(c7)C(=O)N(*)C8=O)c(C)c6)cc5C)cc4C3=O)c(C)c2)cc1C (repeat unit) | 420.00
